Data reported in paper PMC7391767, “Molecular mechanisms underlying menthol binding and activation of TRPM8 ion channel” (Nature Communications, 2020).
“And” between values parts separate entries of the source, which are not always exact repeats. Identical values can stand only once.

Key:
Format in all cases: cell-based
Parameters in all cases: Shifts in ANAP emission, Ave: unit: nm
ANAP-incorporated TRPM8 [1] = biological target: T1, ANAP-incorporated TRPM8 (Mus musculus, UniProt Q8R4D5, S966X); conditions: ANAP at S966
T1 construct: expressed in transfected cells; host or cells: HEK293 cells, co-transfected with the pANAP vector
Description: (§1) As fluorescence emission peak of ANAP shifts to a longer wavelength in more hydrophilic environment, we measured the shift in ANAP emission peak to report conformational changes. Fluorescence properties of ANAP may also be affected by other factors such as temperature and pH[31], so we performed our ANAP experiments always at room temperature (22 ± 1°C). To control for changes in solution pH, we added 3 mM HEPES in ANAP imaging solution to buffer the pH at 7.2. We genetically integrated ANAP into a specific site on TRPM8 with special tRNA and synthetase encoded by pANAP vector (Fig. 5d).
(§2) L-ANAP methyl ester was purchased from AsisChem. pANAP vector was purchased from Addgene. ANAP was incorporated into TRPM8 by introducing a TAG amber stop codon mutation as previously reported. Briefly, after co-transfection of both TRPM8 and pANAP vectors, ANAP was directly added to the culture medium to the final concentration of 20 µM. After 1–2 days, ANAP-containing culture medium was completely changed. Cells were further cultured in ANAP-free medium overnight before experiments.
(§3) ANAP fluorescence was excited by the Ar laser with a 375/28 excitation filter, a T400lp dichroic mirror, and a 435LP emission filter on an inverted fluorescence microscope (Nikon TE2000-U) using a ×40 oil-immersion objective (NA 1.3). Emission spectrum of ANAP was imaged with an Acton SpectraPro 2150i spectrograph in conjunction with an optiMOS CCD camera (Qimaging, USA). We determined the ANAP emission peak value by fitting the emission spectrum with a skewed Gauss distribution in Igor Pro version 6.1 (WaveMatrix), and then the difference in emission peak values measured in the absence and presence of menthol was reported as the shift of ANAP emission.

ANAP-incorporated TRPM8 [2] = biological target: T2, ANAP-incorporated TRPM8 (Mus musculus, UniProt Q8R4D5, S823X); conditions: ANAP incorporation site S823
T2 construct: expressed in transfected cells; host or cells: HEK293 cells, co-transfected with the pANAP vector
Description: as §1, §2, §3

ANAP-incorporated TRPM8 [3] = biological target: T3, ANAP-incorporated TRPM8 (Mus musculus, UniProt Q8R4D5, P952X); conditions: ANAP incorporation site P952; average shift, menthol activated vs resting state
T3 construct: expressed in transfected cells; host or cells: HEK293 cells, co-transfected with the pANAP vector
Description: as §1, §2, §3

ANAP-incorporated TRPM8 [4] = biological target: T4, ANAP-incorporated TRPM8 (Mus musculus, UniProt Q8R4D5, Q1003X); conditions: ANAP incorporation site Q1003; average shift, menthol activated vs resting state
T4 construct: expressed in transfected cells; host or cells: HEK293 cells, co-transfected with the pANAP vector
Description: as §1, §2, §3

ANAP-incorporated TRPM8 [5] = biological target: T5, ANAP-incorporated TRPM8 (Mus musculus, UniProt Q8R4D5, V791X)
T5 construct: expressed in transfected cells; host or cells: HEK293 cells, co-transfected with the pANAP vector
Description: as §1, §2, §3

ANAP-incorporated TRPM8 [6] = biological target: T6, ANAP-incorporated TRPM8 (Mus musculus, UniProt Q8R4D5, I865X); conditions: ANAP incorporation site I865
T6 construct: expressed in transfected cells; host or cells: HEK293 cells, co-transfected with the pANAP vector
Description: as §1, §2, §3

ANAP-incorporated TRPM8 [7] = biological target: T7, ANAP-incorporated TRPM8 (Mus musculus, UniProt Q8R4D5, A875X)
T7 construct: expressed in transfected cells; host or cells: HEK293 cells, co-transfected with the pANAP vector
Description: as §1, §2, §3

ANAP-incorporated TRPM8 [8] = biological target: T8, ANAP-incorporated TRPM8 (Mus musculus, UniProt Q8R4D5, L939X)
T8 construct: expressed in transfected cells; host or cells: HEK293 cells, co-transfected with the pANAP vector
Description: as §1, §2, §3

[9] = average shift, menthol activated vs resting state

CC(C)[C@@H]1CC[C@@H](C)C[C@H]1O [menthol, (−)-menthol]
Shifts in ANAP emission, Ave (ANAP-incorporated TRPM8 [1]): 2.10 | Shifts_ave (ANAP-incorporated TRPM8 [2]; [9]): 0.97 nm | Emission Peak at menthol activated state (ANAP-incorporated TRPM8 [2]; single measurement): 488.83 nm and 484.77 nm and 484.58 nm and 485.28 nm | Shifts_ave (ANAP-incorporated TRPM8 [3]): 1.08 nm | Shifts_ave (ANAP-incorporated TRPM8 [4]): 1.02 nm | Shifts in ANAP emission, Ave (ANAP-incorporated TRPM8 [5]; ANAP at V791): 2.05 | Shifts_ave (ANAP-incorporated TRPM8 [5]; ANAP incorporation site V791, average shift, menthol activated vs resting state): 2.05 nm | Shifts_ave (ANAP-incorporated TRPM8 [6]; [9]): 0.00167 nm | Emission Peak at menthol activated state (ANAP-incorporated TRPM8 [6]; single measurement): 471.49 nm and 482.04 nm and 478.09 nm and 488.42 nm and 478.8 nm and 481.12 nm | Shifts in ANAP emission, Ave (ANAP-incorporated TRPM8 [7]; ANAP at A875): 6.61 | shift of ANAP emission peak (ANAP-incorporated TRPM8 [7]; ANAP at A875 site, redshifted, menthol-induced (0.5 mM), n = 5): 6.6 ± 0.4 nm | Shifts_ave (ANAP-incorporated TRPM8 [7]; ANAP incorporation site A875, average shift, menthol activated vs resting state): 6.61 nm | Shifts in emission (ANAP-incorporated TRPM8 [7]; ANAP incorporation site A875, menthol activated vs resting state, single measurement): 6.25 nm and 6.04 nm and 7.45 nm and 7.64 nm and 5.66 nm | Emission Peak at menthol activated state (ANAP-incorporated TRPM8 [7]; ANAP incorporation site A875, single measurement): 495.85 nm and 493.43 nm and 494.62 nm and 492.72 nm and 492.66 nm | Shifts in ANAP emission, Ave (ANAP-incorporated TRPM8 [8]; ANAP at L939): 2.11 | Shifts_ave (ANAP-incorporated TRPM8 [8]; ANAP incorporation site L939, average shift, menthol activated vs resting state): 2.11 nm | Shifts in emission (ANAP-incorporated TRPM8 [8]; ANAP incorporation site L939, menthol activated vs resting state, single measurement): 2.38 nm and 1.56 nm and 2.39 nm | Emission Peak at menthol activated state (ANAP-incorporated TRPM8 [8]; ANAP incorporation site L939, single measurement): 484.67 nm and 488.02 nm and 485.09 nm
